The test system of the assay is HIV-1 pseudotyped virus. The assay can be described thus: HIV-1 pseudotyped virus assay (luciferase reporter gene, single cycle of infection). The class given is cell-based. The settings on record: Human immunodeficiency virus 1, CCR5, 72 h, read-out: Activity (antiviral activity, IC50). The source says: In this example are illustrated experimental procedures for determining biological activity, such as antiviral activity. For determining biological activity, an HIV-1 infection assay was used to determine the antiviral potency for compounds of the present invention.
For determining biological activity, an HIV-1 pseudotyped virus assay was used to determine the respective antiviral potencies of each compound tested in the assay for comparison. The pseudotyped assay scores for a reduction in infection as indicated by decreased signal from the reporter gene encoding a luciferase enzyme (“reporter gene”). The assay employs cell lines expressing CD4 and either of the primary chemokine receptors (CCR5 or CXCR4) that HIV uses as a co-receptor (“target cells”). Pseudotyped virus was prepared by co-transfection of 293T cells with: 1) a plasmid construct carrying the HIV-1 envelope of choice, in combination with 2) a pseudotyped virus backbone construct in which (a) envelope expression has been abrogated due to a frameshift in the envelope sequence, and (b) the reporter gene replaces nef. Expression of HIV-1 envelope on 293T packaging cells results in the production of a pseudotyped virus carrying the reporter gene that is capable of a single cycle of infection.
The compounds of the present invention being tested for antiviral activity were serially diluted and dose responses determined in duplicate in two separate experiments. The compounds to be tested were added directly to the plated, target cells, followed by the addition of pseudotyped virus described above. The cells were cultured for three days prior harvest. Media and compound were removed, the cell monolayer was washed, lysed by detergent, and then frozen at −80 degrees C. for a minimum of 30 minutes. Following thawing and acclimation to room temperature, luciferase production was quatified by injecting 100 […]I of a substrate (of the enzyme encoded by the reporter gene) into each well followed by detecting the signal (light emitted from the interaction between the enzyme and substrate) after 5 seconds. In the pseudotyped assay, a 50% reduction in signal is significant, and provides the primary cutoff value for assessing antiviral activity (“IC50” is defined as the dilution resulting in a 50% reduction in enzymatic activity as interpolated from a titration curve). Representative compounds according to the present invention, and their antiviral activity, are illustrated in Table 3.
For orientation: Reporter assays use an easily measured gene product as a stand-in for the process of interest.

By IC50 is commonly meant the concentration that gives 50% inhibition. For `C[C@@H]1CN(C(=O)c2ccccc2)CCN1S(=O)(=O)c1ccc(-c2ccccn2)s1` [Example 168, [(R)-3-Methyl-4-(5-pyridinyl-2-yl-thiophene-2-sulfonyl)-piperazin-1-yl]-phenyl-methanone], the 50% inhibitory concentration (IC50) was > 5 µM.

As to `CC1CN(C(=O)c2ccccc2)CCN1C(=O)C(=O)c1ccc(-c2ccn[nH]2)cc1` (stereo not shown) [Example 169, 1-(4-Benzoyl-2-methyl-piperazin-1-yl)-2-[4-(2H-pyrazol-3-yl)-phenyl]-ethane-1,2-dione], the IC50 was < 5 µM.

As for `CC1CN(C(=O)c2ccccc2)CCN1C(=O)C(=O)c1ccc(-n2cncn2)cc1` (stereo not shown) [Example 170, 1-(4-Benzoyl-2-methyl-piperazin-1-yl)-2-(4-[1,2,4]triazol-1-yl-phenyl)-ethane-1,2-dione], the IC50 was < 5 µM.

Take `CC1CN(C(=O)c2ccccc2)CCN1C(=O)C(=O)c1ccc(-c2ccco2)cc1` (stereo not shown) [Example 171, 1-(4-Benzoyl-2-methyl-piperazin-1-yl)-2-(4-furan-2-yl-phenyl)-ethane-1,2-dione]: the IC50 was < 5 µM.

As for `CC1CN(C(=O)c2ccccc2)CCN1C(=O)C(=O)c1ccc(-c2ccn(C)n2)cc1` (stereo not shown) [Example 172, 1-(4-Benzoyl-2-methyl-piperazin-1-yl)-2-[4-(1-methyl-1H-pyrazol-3-yl)-phenyl]-ethane-1,2-dione], the IC50 was < 5 µM.

Take `Cc1ccc(-c2ccc(C(=O)C(=O)N3CCN(C(=O)c4ccccc4)CC3C)cc2)o1` (stereo not shown) [Example 173, 1-(4-Benzoyl-2-methyl-piperazin-1-yl)-2-[4-(5-methyl-furan-2-yl)-phenyl]-ethane-1,2-dione]: the IC50 is < 5 µM.

Take `CC1CN(C(=O)c2ccccc2)CCN1C(=O)C(=O)c1ccc(-n2nccn2)cc1` (stereo not shown) [Example 174, 1-(4-Benzoyl-2-methyl-piperazin-1-yl)-2-(4-[1,2,3]triazol-2-yl-phenyl)-ethane-1,2-dione]: the IC50 was < 5 µM.

Take `COc1cc(C(=O)C(=O)N2CCN(C(=O)c3ccccc3)C[C@H]2C)ccc1-c1cnco1` [Example 175]: the IC50 was < 5 µM.

Consider `C[C@@H]1CN(C(=O)c2ccccc2)CCN1C(=O)C(=O)c1ccc(-c2cncs2)cc1` [Example 176], for which the IC50 is < 5 µM.

For the compound `C[C@@H]1CN(C(=O)c2ccccc2)CCN1C(=O)C(=O)c1ccc(-c2cscn2)cc1` [Example 177], the IC50 is < 5 µM.

`C[C@@H]1CN(C(=O)c2ccccc2)CCN1C(=O)C(=O)c1ccc(-c2cscn2)s1` [Example 178]: the IC50 is < 5 µM.

With `C[C@@H]1CN(C(=O)c2ccccc2)CCN1C(=O)C(=O)c1ccc(-c2cncs2)s1` [Example 179], the IC50 is < 5 µM.

Regarding `COc1cc(-c2cc(C)no2)ccc1C(=O)C(=O)N1CCN(C(=O)c2ccccc2)C[C@H]1C` [Example 180], the IC50 was < 5 µM.

As to `Cc1cc(-c2cc[nH]n2)ccc1C(=O)C(=O)N1CCN(C(=O)c2ccccc2)C[C@H]1C` [Example 181, 1-((R)-4-Benzoyl-2-methyl-piperazin-1-yl)-2-[2-methyl-4-(1H-pyrazol-3-yl)-phenyl]-ethane-1,2-dione], the IC50 is < 5 µM.

As for `Cc1ncc(-c2ccc(C(=O)C(=O)N3CCN(C(=O)c4ccccc4)C[C@H]3C)s2)s1` [Example 182], the IC50 was > 5 µM.

As to `C[C@@H]1CN(C(=O)c2ccccc2)CCN1C(=O)C(=O)c1ccc(-c2cc[nH]n2)cc1F` [Example 183], the concentration for half-maximal inhibition (IC50) is < 5 µM.

Regarding `Cc1cc(C(=O)C(=O)N2CCN(C(=O)c3ccccc3)C[C@H]2C)ccc1-c1cc[nH]n1` [Example 184, 1-((R)-4-Benzoyl-2-methyl-piperazin-1-yl)-2-[3-methyl-4-(1H-pyrazol-3-yl)-phenyl]-ethane-1,2-dione], the IC50 was < 5 µM.

As for `COc1cc(C(=O)C(=O)N2CCN(C(=O)c3ccccc3)C[C@H]2C)ccc1-c1cc(C)no1` [Example 185], the IC50 is < 5 µM.

For `C[C@@H]1CN(C(=O)c2ccccc2)CCN1C(=O)C(=O)c1ccc(-c2ccn[nH]2)nc1` [Example 186, 1-((R)-4-Benzoyl-2-methyl-piperazin-1-yl)-2-[6-(1H-pyrazol-3-yl)-pyridin-3-yl]-ethane-1,2-dione], the IC50 was < 5 µM.

Turning to `C[C@@H]1CN(C(=O)c2ccccc2)CCN1C(=O)C(=O)c1ccc(-c2nccn2C)cc1` [Example 187], the IC50 was > 5 µM.

With `C[C@@H]1CN(C(=O)c2ccccc2)CCN1C(=O)C(=O)c1ccc(-c2nccn2C)s1` [Example 188], the IC50 was > 5 µM.

Consider `C[C@@H]1CN(C(=O)c2ccccc2)CCN1C(=O)C(=O)c1ccc(-c2cnco2)c(Cl)c1` [Example 189], for which the IC50 is < 5 µM.

With `COc1cc(-c2cc[nH]n2)ccc1C(=O)C(=O)N1CCN(C(=O)c2ccccc2)C[C@H]1C` [Example 190], the IC50 is < 5 µM.

Take `COc1cc(C(=O)C(=O)N2CCN(C(=O)c3ccccc3)C[C@H]2C)ccc1-c1cc[nH]n1` [Example 191]: the IC50 was < 5 µM.

With `C[C@@H]1CN(C(=O)c2ccccc2)CCN1C(=O)C(=O)c1ccc(-c2cc[nH]n2)cc1Cl` [Example 192], the IC50 is < 5 µM.

For `C[C@@H]1CN(C(=O)c2ccccc2)CCN1C(=O)C(=O)c1ccc(-n2cccn2)cc1` [Example 193, 1-((R)-4-Benzoyl-2-methyl-piperazin-1-yl)-2-(4-pyrazol-1-yl-phenyl)-ethane-1,2-dione], the IC50 is < 5 µM.

Regarding `Cc1noc(C)c1-c1ccc(C(=O)C(=O)N2CCN(C(=O)c3ccccc3)C[C@H]2C)cn1` [Example 194], the IC50 was > 5 µM.

Consider `Cc1cc(-n2cccn2)ccc1C(=O)C(=O)N1CCN(C(=O)c2ccccc2)C[C@H]1C` [Example 195, 1-((R)-4-Benzoyl-2-methyl-piperazin-1-yl)-2-(2-methyl-4-pyrazol-1-yl-phenyl)-ethane-1,2-dione], for which the IC50 is > 5 µM.

For `C[C@@H]1CN(C(=O)c2ccccc2)CCN1C(=O)C(=O)c1c[nH]c(-c2cccnc2)c1` [Example 196], the IC50 is > 5 µM.

For the compound `CC1CN(C(=O)c2ccccc2)CCN1C(=O)C(=O)c1ccc(-c2cnn(C)c2)cc1` (stereo not shown) [Example 197], the IC50 is < 5 µM.

In the case of `CC(=O)c1ccc(-c2ccc(C(=O)C(=O)N3CCN(C(=O)c4ccccc4)C[C@H]3C)cc2)s1` [Example 198], the IC50 was < 5 µM.

With `C[C@@H]1CN(C(=O)c2ccccc2)CCN1C(=O)C(=O)c1ccc(-c2cccnc2)cc1` [Example 199], the IC50 was < 5 µM.

With `CC1CN(C(=O)c2ccccc2)CCN1C(=O)C(=O)c1ccc(-c2ncccc2F)cc1` (stereo not shown) [Example 200], the IC50 was < 5 µM.

On to `C[C@@H]1CN(C(=O)c2ccccc2)CCN1C(=O)C(=O)c1ccc(-c2ccc(C(F)(F)F)cn2)cc1` [Example 201], for which the 50% inhibitory concentration (IC50) was < 5 µM.

Regarding `COc1cc(-c2ccc(C(=O)C(=O)N3CCN(C(=O)c4ccccc4)C[C@H]3C)cc2)nc(OC)n1` [Example 202], the IC50 was < 5 µM.

Regarding `C[C@@H]1CN(C(=O)c2ccccc2)CCN1C(=O)C(=O)c1ccc(-c2ncccn2)cc1` [Example 203], the IC50 was < 5 µM.

In the case of `C[C@@H]1CN(C(=O)c2ccccc2)CCN1C(=O)C(=O)c1ccc(-c2ccsc2)cc1` [Example 204], the IC50 was < 5 µM.

As to `C[C@@H]1CN(C(=O)c2ccccc2)CCN1C(=O)C(=O)c1ccc(-c2cccs2)cc1` [Example 205], the IC50 is < 5 µM.

Turning to `C[C@@H]1CN(C(=O)c2ccccc2)CCN1C(=O)C(=O)c1ccc(-c2ccncc2)cc1` [Example 206], the IC50 is < 5 µM.

With `Cc1ccc(-c2ccc(C(=O)C(=O)N3CCN(C(=O)c4ccccc4)C[C@H]3C)cc2)nc1` [Example 207], the IC50 is < 5 µM.

`Cc1ccnc(-c2ccc(C(=O)C(=O)N3CCN(C(=O)c4ccccc4)CC3C)cc2)n1` (stereo not shown) [Example 208]: the IC50 is < 5 µM.

In the case of `Cc1cc(-c2ccc(C(=O)C(=O)N3CCN(C(=O)c4ccccc4)C[C@H]3C)c(Cl)c2)on1` [Example 209], the IC50 was < 5 µM.

On to `Cc1cc(-c2ccc(C(=O)C(=O)N3CCN(C(=O)c4ccccc4)C[C@H]3C)cc2F)on1` [Example 210], for which the IC50 was < 5 µM.

In the case of `C[C@@H]1CN(C(=O)c2ccccc2)CCN1C(=O)C(=O)c1ccc(N2CCCC2)cc1` [Example 211, 1-((R)-4-Benzoyl-2-methyl-piperazin-1-yl)-2-(4-pyrrolidin-1-yl-phenyl)-ethane-1,2-dione], the half-inhibitory concentration (IC50) is > 5 µM.

With `C[C@@H]1CN(C(=O)c2ccccc2)CCN1C(=O)C(=O)c1ccc(N2CCOC2=O)cc1` [Example 212, 1-((R)-4-Benzoyl-2-methyl-piperazin-1-yl)-2-[4-(2-oxo-oxazolidin-3-yl)-phenyl]-ethane-1,2-dione], the IC50 is > 5 µM.

Take `Cc1cc(C(=O)C(=O)N2CCN(C(=O)c3ccccc3)C[C@H]2C)ccc1-n1cccn1` [Example 213, 1-((R)-4-Benzoyl-2-methyl-piperazin-1-yl)-2-(3-methyl-4-pyrazol-1-yl-phenyl)-ethane-1,2-dione]: the IC50 was > 5 µM.

Source of the values: US20070259879A1, “Piperazine and piperidine biaryl derivatives” (priority 2006, published 2007).
